Reference: ChEMBL document CHEMBL3112477, “Rat intestinal sucrase inhibition of constituents from the roots of Rosa rugosa Thunb” (Bioorg Med Chem Lett, 2014)

Assays:
[1] = biological target: Sucrase-isomaltase, intestinal (Rattus norvegicus, UniProt P23739); test: Inhibition of rat intestinal sucrase using p-nitrophenyl-alpha-d-glucopyranoside as substrate incubated for 10 mins prior to substrate addition measured after 5 mins by spectrophotometry
[2] = biological target: Sucrase-isomaltase, intestinal (Rattus norvegicus) (UniProt P23739); test: Inhibition of rat intestinal sucrase using p-nitrophenyl-alpha-d-glucopyranoside as substrate at 1 mM incubated for 10 mins prior to substrate addition measured after 5 mins by spectrophotometry
Sucrase-isomaltase, intestinal (Rattus norvegicus), sequence (P23739 1-1013 limits assumed): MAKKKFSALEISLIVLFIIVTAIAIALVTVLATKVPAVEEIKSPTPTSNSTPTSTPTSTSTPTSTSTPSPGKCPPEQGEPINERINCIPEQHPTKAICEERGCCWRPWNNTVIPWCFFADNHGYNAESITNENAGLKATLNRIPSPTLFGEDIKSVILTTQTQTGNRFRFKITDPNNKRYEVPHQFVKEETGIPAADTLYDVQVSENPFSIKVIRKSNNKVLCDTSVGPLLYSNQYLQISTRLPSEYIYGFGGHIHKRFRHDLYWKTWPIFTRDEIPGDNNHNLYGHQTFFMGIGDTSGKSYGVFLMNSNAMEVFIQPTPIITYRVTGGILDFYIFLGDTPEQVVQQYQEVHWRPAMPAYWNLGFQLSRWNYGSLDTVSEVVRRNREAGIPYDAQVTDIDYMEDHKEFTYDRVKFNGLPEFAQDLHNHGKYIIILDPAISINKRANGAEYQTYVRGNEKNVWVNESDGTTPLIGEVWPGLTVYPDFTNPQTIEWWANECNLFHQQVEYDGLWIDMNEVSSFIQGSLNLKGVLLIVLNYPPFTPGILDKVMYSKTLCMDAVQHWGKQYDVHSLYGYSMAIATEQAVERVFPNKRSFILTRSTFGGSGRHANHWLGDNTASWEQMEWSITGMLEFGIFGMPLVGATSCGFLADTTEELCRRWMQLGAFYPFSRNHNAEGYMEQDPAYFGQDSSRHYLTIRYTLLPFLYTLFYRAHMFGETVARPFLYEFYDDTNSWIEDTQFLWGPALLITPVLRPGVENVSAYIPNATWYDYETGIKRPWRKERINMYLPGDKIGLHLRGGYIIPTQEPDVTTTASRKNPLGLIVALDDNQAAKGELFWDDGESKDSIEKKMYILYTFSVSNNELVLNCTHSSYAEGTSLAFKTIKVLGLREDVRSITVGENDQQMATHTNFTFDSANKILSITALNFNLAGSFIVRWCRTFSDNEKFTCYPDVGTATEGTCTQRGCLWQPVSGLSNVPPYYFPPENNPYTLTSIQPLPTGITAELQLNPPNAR
Sucrase-isomaltase, intestinal (Rattus norvegicus), sequence (P23739 1014-1841 limits assumed): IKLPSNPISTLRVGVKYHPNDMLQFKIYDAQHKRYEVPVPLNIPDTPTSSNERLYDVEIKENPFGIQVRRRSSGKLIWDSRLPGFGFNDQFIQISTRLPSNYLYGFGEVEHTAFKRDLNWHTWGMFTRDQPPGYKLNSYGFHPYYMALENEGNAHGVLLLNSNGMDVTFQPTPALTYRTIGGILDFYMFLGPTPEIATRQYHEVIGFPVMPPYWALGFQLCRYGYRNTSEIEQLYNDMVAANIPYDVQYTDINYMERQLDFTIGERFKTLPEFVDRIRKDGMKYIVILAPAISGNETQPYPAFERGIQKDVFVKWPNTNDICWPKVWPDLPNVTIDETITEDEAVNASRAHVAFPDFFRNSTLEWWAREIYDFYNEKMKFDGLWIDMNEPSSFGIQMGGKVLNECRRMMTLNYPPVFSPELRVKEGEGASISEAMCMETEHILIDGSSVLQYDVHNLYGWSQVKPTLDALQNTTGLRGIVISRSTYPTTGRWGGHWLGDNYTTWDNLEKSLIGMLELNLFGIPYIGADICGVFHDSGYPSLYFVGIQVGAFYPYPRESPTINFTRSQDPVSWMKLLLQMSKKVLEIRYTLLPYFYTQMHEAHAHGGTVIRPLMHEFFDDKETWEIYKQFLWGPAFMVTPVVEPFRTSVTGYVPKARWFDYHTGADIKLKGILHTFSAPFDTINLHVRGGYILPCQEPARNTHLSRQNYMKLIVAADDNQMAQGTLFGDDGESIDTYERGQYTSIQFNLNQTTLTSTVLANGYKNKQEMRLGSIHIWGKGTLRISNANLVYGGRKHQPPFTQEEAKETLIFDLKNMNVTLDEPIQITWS

Sucrase-isomaltase, intestinal, sequence (P23739 1-1013 limits assumed): as the sequence (P23739 1-1013 limits assumed) above
Sucrase-isomaltase, intestinal, sequence (P23739 1014-1841 limits assumed): as the sequence (P23739 1014-1841 limits assumed) above

Compound | IC50 [1] [µM] | inhibition [2] [%]
CC1(C)[C@@H](O)CC[C@]2(C)[C@H]3CC[C@@H]4C=C[C@H](O)[C@@]4(C)[C@]3(C)CC[C@@H]12 | > 1000 | 40
CC1=CC(=O)CC(C)(C)[C@H]1/C=C/[C@@H](C)O[C@@H]1O[C@H](CO)[C@@H](O)[C@H](O)[C@H]1O | > 1000 | 12.5
C[C@H]1[C@H](C)CC[C@]2(C(=O)O)CC[C@]3(C)C(=CC[C@@H]4[C@@]5(C)CC[C@H](O)C(C)(C)[C@@H]5CC[C@]43C)[C@H]12 [URSOLIC ACID] | > 1000 | 32
Oc1cc(O)c2c(c1)O[C@H](c1ccc(O)c(O)c1)[C@H](O)C2 [(-)-EPICATECHIN] | 650 | 61.9
Oc1cc(O)c2c(c1)O[C@@]1(c3ccc(O)c(O)c3)Oc3cc(O)c4c(c3[C@@H]2[C@H]1O)O[C@@H](c1ccc(O)c(O)c1)[C@H](O)[C@H]4c1c(O)cc(O)c2c1O[C@H](c1ccc(O)c(O)c1)[C@H](O)C2 [AESCULTITANNIN B] | 400 | 66.8
C=C(C)[C@@H]1CC[C@]2(C(=O)O)CC[C@]3(C)[C@H](CC[C@@H]4[C@@]5(C)CC[C@H](O)C(C)(C)[C@@H]5CC[C@]43C)[C@@H]12 |  | < 10
C[C@@H]1CC[C@]2(C(=O)O)CC[C@]3(C)C(=CC[C@@H]4[C@@]5(C)C=C(O)C(=O)C(C)(C)[C@@H]5CC[C@]43C)[C@@H]2[C@]1(C)O |  | < 10
C[C@@H]1CC[C@]2(C(=O)O)CC[C@]3(C)C(=CC[C@@H]4[C@@]5(C)CC(=O)[C@H](O)C(C)(C)[C@@H]5CC[C@]43C)[C@@H]2[C@]1(C)O |  | < 10
C[C@H]1O[C@H](O[C@H]2[C@H](O)[C@@H](O)[C@@H](O[C@H]3[C@H](O)[C@@H](O)C(O)O[C@@H]3CO)O[C@@H]2CO)[C@H](O)[C@@H](O)[C@@H]1N[C@H]1C=C(CO)[C@@H](O)[C@H](O)[C@H]1O (some centres not stated) |  | 51
Oc1cc(O)c2c(c1)O[C@H](c1ccc(O)c(O)c1)[C@@H](O)C2 [CIANIDANOL] | 310 | 80
CC1=CC(=O)CC(C)(C)[C@H]1/C=C/[C@H](C)O[C@@H]1O[C@H](CO)[C@@H](O)[C@H](O)[C@H]1O | > 1000 | 14
Oc1ccc([C@H]2Oc3cc(O)ccc3[C@H](c3c(O)cc(O)c4c3O[C@H](c3ccc(O)c(O)c3)[C@H](O)C4)[C@H]2O)cc1 | 480 | 68.4
CC1(C)C=C(C=O)[C@]2(C)[C@H]3CC=C4[C@@H]5[C@H](O)C(C)(C)CC[C@]5(C(=O)O)CC[C@@]4(C)[C@]3(C)CC[C@@H]12 | > 1000 | 32.4
Oc1cc(O)c2c(c1)O[C@H](c1ccc(O)c(O)c1)[C@@H](O)[C@@H]2c1c(O)cc(O)c2c1O[C@H](c1ccc(O)c(O)c1)[C@@H](O)C2 | 430 | 76
CC1=CC(=O)CC(C)(C)/C1=C/CC(C)O[C@@H]1O[C@H](CO)[C@@H](O)[C@H](O)[C@H]1O (some centres not stated) | > 1000 | 28.3
Oc1ccc2c(c1)O[C@H](c1ccc(O)c(O)c1)[C@@H](O)[C@@H]2c1c(O)cc2c(c1O)C[C@H](O)[C@@H](c1ccc(O)c(O)c1)O2 | 520 | 72.2
Oc1ccc([C@@H]2Oc3cc(O)ccc3[C@H](c3c(O)cc(O)c4c3O[C@H](c3ccc(O)c(O)c3)[C@H](O)C4)[C@H]2O)cc1 | 250 | 84.7
CC1=CC(=O)CC(C)(C)/C1=C\CC(C)O[C@@H]1O[C@H](CO)[C@@H](O)[C@H](O)[C@H]1O (some centres not stated) | > 1000 | 28.6
